The values that follow come from the NIST ThermoML archive (doi:10.1021/je4004965).

The conditions of data set [1]: 101.33 kPa, Liquid; for speed of sound: Pulse-echo method; for mass density: Vibrating tube method.
The nature of data set [2]: molar heat capacity at constant pressure. The conditions noted are these: 101.33 kPa, Liquid, Small sample (50 mg) DSC.

Numbers after ± are expanded uncertainties.

`CCn1cc[n+](C)c1.F[B-](F)(F)F` [1-ethyl-3-methylimidazolium tetrafluoroborate]: the speed of sound in data set [1] (293.15 K) is reported as 1631.1 ± 2.2 m/s; in data set [1] (298.15 K) it was 1619.4 ± 2.1 m/s; in data set [1] (303.15 K) it was 1607.6 ± 2.1 m/s; in data set [1] (308.15 K), 1596.3 ± 2.1 m/s. Besides, the mass density in data set [1] (293.15 K) was 1283.89 ± 1.7 kg/m3; in data set [1] (298.15 K) it was 1279.91 ± 1.7 kg/m3; in data set [1] (303.15 K) it was 1276.26 ± 1.7 kg/m3; in data set [1] (308.15 K), 1272.07 ± 1.7 kg/m3. Besides, the “molar heat capacity at constant pressure” value was determined as 303.73 ± 4.7 J/K/mol in data set [2] (293.15 K), 305.35 ± 4.7 J/K/mol in data set [2] (298.15 K), 306.16 ± 4.7 J/K/mol in data set [2] (303.15 K) and 308.94 ± 4.8 J/K/mol in data set [2] (308.15 K).

Take `Cc1ccccc1N` [2-methylaniline]: the speed of sound in data set [1] (293.15 K) is given as 1622.2 ± 1.3 m/s; in data set [1] (298.15 K), 1602.3 ± 1.3 m/s; in data set [1] (303.15 K), 1577.7 ± 1.3 m/s; in data set [1] (308.15 K), 1558.2 ± 1.3 m/s. The mass density in data set [1] (293.15 K) was determined as 998.431 ± 1 kg/m3; in data set [1] (298.15 K), 994.358 ± 1 kg/m3; in data set [1] (303.15 K), 990.23 ± 1 kg/m3; in data set [1] (308.15 K), 986.064 ± 1 kg/m3. Also, the “molar heat capacity at constant pressure” value in data set [2] (293.15 K) came to 215.96 ± 3.4 J/K/mol; in data set [2] (298.15 K), 217.16 ± 3.4 J/K/mol; in data set [2] (303.15 K), 218.43 ± 3.4 J/K/mol; in data set [2] (308.15 K), 219.52 ± 3.4 J/K/mol.

As to `Cc1ccccn1` [2-methylpyridine], the speed of sound in data set [1] (293.15 K) was 1400.5 ± 2.1 m/s; in data set [1] (298.15 K) it was 1380.1 ± 2.1 m/s; in data set [1] (303.15 K) it was 1361 ± 2.1 m/s; in data set [1] (308.15 K), 1339.9 ± 2.1 m/s. Further, the mass density is recorded as 944.401 ± 1.2 kg/m3 in data set [1] (293.15 K), 939.802 ± 1.2 kg/m3 in data set [1] (298.15 K), 935.117 ± 1.2 kg/m3 in data set [1] (303.15 K) and 930.414 ± 1.2 kg/m3 in data set [1] (308.15 K). Further, the “molar heat capacity at constant pressure” value came out at 157.07 ± 2.4 J/K/mol in data set [2] (293.15 K), 158.86 ± 2.5 J/K/mol in data set [2] (298.15 K), 160.14 ± 2.5 J/K/mol in data set [2] (303.15 K) and 160.66 ± 2.5 J/K/mol in data set [2] (308.15 K).

As for `Cc1cccnc1` [3-methylpyridine], the speed of sound in data set [1] (293.15 K) is given as 1445.9 ± 1.2 m/s; in data set [1] (298.15 K), 1424 ± 1.2 m/s; in data set [1] (303.15 K), 1404.1 ± 1.2 m/s; in data set [1] (308.15 K) it was 1384 ± 1.2 m/s. The mass density was determined as 956.581 ± 1 kg/m3 in data set [1] (293.15 K), 952.002 ± 1 kg/m3 in data set [1] (298.15 K), 947.449 ± 1 kg/m3 in data set [1] (303.15 K) and 942.831 ± 1 kg/m3 in data set [1] (308.15 K). The “molar heat capacity at constant pressure” value was determined as 156.05 ± 2.4 J/K/mol in data set [2] (293.15 K), 158.75 ± 2.5 J/K/mol in data set [2] (298.15 K), 160.83 ± 2.5 J/K/mol in data set [2] (303.15 K) and 160.96 ± 2.5 J/K/mol in data set [2] (308.15 K).

For `Cc1ccncc1` [4-methylpyridine], the speed of sound in data set [1] (293.15 K) is reported as 1451.1 ± 1.2 m/s; in data set [1] (298.15 K), 1431.5 ± 1.2 m/s; in data set [1] (303.15 K), 1410.7 ± 1.2 m/s; in data set [1] (308.15 K) it was 1389.9 ± 1.2 m/s. Besides, the mass density in data set [1] (293.15 K) was determined as 955.099 ± 1 kg/m3; in data set [1] (298.15 K), 950.179 ± 1 kg/m3; in data set [1] (303.15 K), 945.413 ± 1 kg/m3; in data set [1] (308.15 K) it was 940.821 ± 1 kg/m3. The “molar heat capacity at constant pressure” value in data set [2] (293.15 K) is listed as 155.88 ± 2.4 J/K/mol; in data set [2] (298.15 K), 158.52 ± 2.5 J/K/mol; in data set [2] (303.15 K), 160.84 ± 2.5 J/K/mol; in data set [2] (308.15 K), 160.83 ± 2.5 J/K/mol.

In the case of `c1ccncc1` [pyridine], the speed of sound in data set [1] (293.15 K) was determined as 1442 ± 1.2 m/s; in data set [1] (298.15 K), 1417.8 ± 1.2 m/s; in data set [1] (303.15 K), 1398 ± 1.2 m/s; in data set [1] (308.15 K), 1377.1 ± 1.2 m/s. The mass density is 983.191 ± 1 kg/m3 in data set [1] (293.15 K), 978.249 ± 1 kg/m3 in data set [1] (298.15 K), 973.224 ± 1 kg/m3 in data set [1] (303.15 K) and 968.166 ± 1 kg/m3 in data set [1] (308.15 K). Further, the “molar heat capacity at constant pressure” value in data set [2] (293.15 K) turned out to be 130.49 ± 2 J/K/mol; in data set [2] (298.15 K) it was 131.74 ± 2 J/K/mol; in data set [2] (303.15 K) it was 132.71 ± 2.1 J/K/mol; in data set [2] (308.15 K), 133.82 ± 2.1 J/K/mol.
